Measurements from paper PMC3448795 (Biochemistry, 2012).
Where two headings read alike, the source gives them in different places. Peptide text beside a SMILES is read from it.

Tests used:
human S100B [1] = molecular target: T1, human S100B (Homo sapiens, UniProt P04271); assay: Isothermal titration calorimetry; format: binding
T1 sequence (P04271 2-92 limits assumed): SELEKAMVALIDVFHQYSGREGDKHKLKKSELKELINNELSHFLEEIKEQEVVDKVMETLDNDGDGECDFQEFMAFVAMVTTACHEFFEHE

human S100B [2] = molecular target: T1, human S100B; assay: NMR 1H-15N HSQC titration with LineShapeKin line shape analysis; format: binding; conditions: for Kon (Table 3) / Kon (Table 4) / Kon (Table 2): low salt; for Kon (Table 2): Kd from ITC
[3] = calculated from Kd and Koff of Table 3
[4] = calculated from Kd and Koff of Table 4
[5] = calculated from Kd and Koff, 35°C

| SMILES | Kd (human S100B [1]) [nM] | Kon (Table 3) (human S100B [2]; [3]) | Kon (Table 4) (human S100B [2]; [4]) | Kon (Table 2) (human S100B [2]; [5]) | kon (human S100B [2]; read-out: Kon (text, Table 2 analysis)) [M⁻¹ s⁻¹] | Kon, first peptide binding event (human S100B [2]; bounds from simulated Koff and ITC Kd1) | Kon, second peptide binding event (human S100B [2]; bounds from simulated Koff and ITC Kd2) | ΔCp, exp, high salt (human S100B [1]; slope of ΔHcal versus temperature, ITC, buffer plus 120 mM NaCl) [kJ·mol^-1 K^-1] | Kd (human S100B [2]; Kd, App (Table 4), high salt, LineShapeKin, NMR only, 35°C, from 2D matrix) [nM] | Kon (Table 3), high salt (human S100B [2]; calculated from Kd and Koff of Table 3, high salt) | Kon (Table 4), high salt (human S100B [2]; calculated from Kd and Koff of Table 4, high salt) | Kon (Table 2), high salt (human S100B [2]; calculated from Kd and Koff, 35°C, high salt) | koff (human S100B [2]; read-out: Koff (Table 3), high salt, LineShapeKin, NMR only, 35°C, high salt) [s⁻¹] | koff (human S100B [2]; read-out: Koff (Table 4), high salt, LineShapeKin, NMR only, 35°C, high salt, from 2D matrix) [s⁻¹] | kon (human S100B [2]; read-out: Kon (text, Table 3 analysis)) [M⁻¹ s⁻¹] |
| --- | --- | --- | --- | --- | --- | --- | --- | --- | --- | --- | --- | --- | --- | --- | --- |
| CC(=O)N[C@@H](CCC(=O)O)C(=O)N[C@H](C(=O)N[C@@H](CC(C)C)C(=O)N[C@H](C(=O)N[C@@H](CCCNC(=N)N)C(=O)N1CCC[C@H]1C(=O)N[C@@H](CCCCN)C(=O)N1CCC[C@H]1C(=O)N[C@@H](CC(C)C)C(=O)N[C@@H](CC(C)C)C(=O)N[C@@H](CC(C)C)C(=O)N[C@@H](CCCCN)C(=O)N[C@@H](CC(C)C)C(=O)N[C@@H](CC(C)C)C(=O)N[C@@H](CCCCN)C(=O)N[C@@H](CO)C(=O)N[C@H](C(=O)NCC(=O)N[C@@H](C)C(=O)N[C@@H](Cc1ccc(O)cc1)C(N)=O)C(C)C)C(C)C)[C@@H](C)O [HDM2] (Ac-ETLVRPKPLLLKLLKSVGAY-NH2) | 500 ± 200 | 160 ± 70 1×10^7 M^-1 s^-1 | 100 ± 40 1×10^7 M^-1 s^-1 | 30 ± 11 1×10^7 M^-1 s^-1 | 2.8e+08 | – | – | – | – | – | – | – | – | – | – |
| CC(=O)N[C@@H](CCCCN)C(=O)N[C@@H](CCCNC(=N)N)C(=O)N[C@@H](CC(C)C)C(=O)N[C@@H](CCCNC(=N)N)C(=O)N[C@@H](CCCNC(=N)N)C(=O)N[C@@H](CO)C(=O)N[C@@H](C)C(=O)N[C@@H](Cc1c[nH]cn1)C(=O)N[C@@H](C)C(=O)N[C@@H](CCCNC(=N)N)C(=O)N[C@@H](CCCCN)C(=O)N[C@@H](CCC(=O)O)C(=O)N[C@H](C(=O)N[C@@H](CCC(=O)O)C(=O)N[C@@H](Cc1ccccc1)C(=O)N[C@@H](CC(C)C)C(=O)N[C@@H](CCCNC(=N)N)C(=O)N[C@@H](CC(C)C)C(=O)N[C@@H](CCCCN)C(=O)N[C@@H](CCCNC(=N)N)C(=O)N[C@H](C(=O)N[C@@H](CCCNC(=N)N)C(=O)N[C@@H](CC(C)C)C(=O)NCC(=O)N[C@@H](CC(C)C)C(=O)N[C@@H](CCC(=O)O)C(=O)N[C@@H](Cc1ccc(O)cc1)C(N)=O)[C@@H](C)O)[C@@H](C)O [NDR] (Ac-KRLRRSAHARKETEFLRLKRTRLGLEY-NH2) | – | – | – | – | – | 13-63 1×10^7 M^-1 s^-1 | 1-10 1×10^7 M^-1 s^-1 | – | – | – | – | – | – | – | – |
| CSCC[C@H](NC(=O)[C@H](CC(C)C)NC(=O)[C@H](CCCCN)NC(=O)[C@H](CCCCN)NC(=O)[C@H](Cc1c[nH]cn1)NC(=O)[C@H](CCCNC(=N)N)NC(=O)[C@H](CO)NC(=O)[C@@H](NC(=O)[C@H](CO)NC(=O)[C@H](CCC(N)=O)NC(=O)CNC(=O)[C@H](CCCCN)NC(=O)[C@H](CCCCN)NC(=O)[C@H](CO)NC(=O)[C@H](CCCCN)NC(=O)[C@H](CC(C)C)NC(=O)[C@H](Cc1c[nH]cn1)NC(=O)[C@H](CO)NC(=O)[C@H](Cc1ccc(O)cc1)NC(C)=O)[C@@H](C)O)C(=O)N[C@@H](Cc1ccccc1)C(=O)N[C@@H](CCCCN)C(=O)N[C@H](C(=O)N[C@@H](CCC(=O)O)C(N)=O)[C@@H](C)O [p53] | 2000 ± 1000 | 80 ± 30 1×10^7 M^-1 s^-1 | 100 ± 40 1×10^7 M^-1 s^-1 | 40 ± 16 1×10^7 M^-1 s^-1 | – | – | – | -1.2 ± 0.3 | 10000 ± 2000 | 7.5 ± 1.5 1×10^7 M^-1 s^-1 | 10 ± 2 1×10^7 M^-1 s^-1 | 3 ± 1 1×10^7 M^-1 s^-1 | 750 ± 150 | 1000 ± 200 | 8e+08 |
| CC[C@H](C)[C@H](NC(=O)[C@H](CCCCN)NC(=O)[C@H](CC(C)C)NC(=O)[C@H](CC(C)C)NC(=O)[C@@H]1CCCN1C(=O)[C@H](CC(C)C)NC(=O)[C@H](CCCCN)NC(=O)[C@@H]1CCCN1C(=O)[C@H](CCCNC(=N)N)NC(=O)[C@@H](NC(=O)[C@H](CCC(N)=O)NC(=O)[C@H](CC(N)=O)NC(C)=O)C(C)C)C(=O)N[C@@H](CC(C)C)C(=O)N[C@@H](Cc1c[nH]cn1)C(=O)N[C@@H](C)C(=O)N[C@@H](C)C(=O)NCC(=O)N[C@@H](C)C(=O)N[C@@H](CCC(N)=O)C(=O)N[C@@H](Cc1ccc(O)cc1)C(N)=O [HDM4] (Ac-NQVRPKLPLLKILHAAGAQY-NH2) | 70 ± 30 | 3 ± 1 1×10^7 M^-1 s^-1 | – | – | – | – | – | – | – | – | – | – | – | – | – |
